Reference: patent US12458647B2, “Macrocyclic derivative and use thereof” (Guangzhou Joyo Pharmatech Co., Ltd., priority 2022, dated 2025)
pIC50: −log10 of the molar value.

What was measured:
[1] = Pharmacokinetic study in rats; format: in vivo; conditions: male SD rats; for AUC0-last / Cl / T1/2 / Vd / Cmax / TMax: whole blood
Description: To evaluate the pharmacokinetic behavior of the compounds of the present disclosure in male SD rats.
The compounds to be tested were dissolved in the vehicle (5% DMSO/10% solutol/85% water). Four male SD rats were divided into 2 groups, with 2 rats in each group. Group 1 rats were administered a single intravenous bolus injection (i.v.) of the compounds at a dose of 1 mg/kg. Group 2 rats were administered a single dose of the compounds by gavage (p.o.) at a dose of 10 mg/kg. Whole blood samples were collected at 0.083 (intravenous bolus group only), 0.25, 0.5, 1, 2, 4, 8 and 24 hours after dosing. The LC-MS/MS method was used to determine the concentration of the test compound in whole blood samples.

AsPC-1 cells = test: In vitro cell proliferation experiment (5 days), AsPC-1; format: cell-based; conditions: AsPC-1, 5 days; read-out: Inhibitory Activity IC50
Description: (§1) RPMI 1640 medium, DMEM, Ham's F12 medium, F12K medium, IMDM and penicillin/streptomycin antibiotics were purchased from Gibco, fetal bovine serum was purchased from Hyclone, Envision multilabel plate reader (PerkinElmer). […]
(§2) The test compound was diluted by 5-fold to 8 concentrations with a pipette, i.e., from 2 mM to 25.6 nM, and replicate wells were set up for the experiment. […] Another cell plate was prepared, and the signal value was read as the maximum value (the maximum value in the following equation) on the day of dosing for data analysis.
(§3) 50 μL of cell viability chemiluminescent detection reagent was added to the cell plate and incubated at room temperature for 30 minutes to stabilize the luminescence signal. A multilabel plate reader was used for reading. […]

[2] = system: human lung bronchial benign NCI—H727 cells; test: In vivo pharmacodynamic study, NCI-H727 subcutaneous xenograft tumor model in BALB/c nude mice; conditions: gavage once daily
Description: To study the in vivo efficacy of a compound of the present disclosure on human lung bronchial benign NCI—H727 cells in a subcutaneous xenograft tumor model in BALB/c nude mice.
Laboratory animals: Female BALB/c nude mice, 6-8 weeks old, weighing 18-22 g; supplier Beijing Vital River Laboratory Animal Technology Co., Ltd.
(1) Cell culture: Human lung bronchial benign tumor cells were cultured in vitro in a monolayer, and the culture conditions were 10% fetal bovine serum added to Gibco RMPI1640 medium, incubated at 37° C. in a 5% CO2 incubator. Routine passage was performed twice a week with trypsin-EDTA for digestion. When the cell saturation was 80%-90% and the required number was reached, the cells were collected, counted, and inoculated.
(2) Tumour cell inoculation and grouping: 0.2 mL (2×10^6) of NCI—H727 cells (Matrigel was added in a volume ratio of 1:1) were inoculated subcutaneously into the right back of each mouse, and dosing was initiated when the mean tumor volume reached approximately 134 mm^3, with 6 animals in each group.
The vehicle was 5% DMSO/10% solutol/85% water. Control group: The vehicle was administered twice daily by gavage at a dose of 10 μL/g; treatment group: After dissolving the test compound in the vehicle, the compound was administered by gavage once daily.
(3) The tumor diameter was measured with a vernier caliper twice weekly, and the tumor volume(V) was calculated. The formula is: V=0.5a×b^2, where a and b are the long and short diameters of the tumor, respectively. The tumor inhibitory efficacy of the test compound was evaluated by the tumor growth inhibition rate (TGI). The calculation formula is: TGI %=1−(Mean tumor volume at the end of dosing in a treatment group−Mean tumor volume at the start of dosing in this treatment group)/(Mean tumor volume at the end of treatment in the vehicle control group−Mean tumor volume at the start of treatment in the vehicle control group)×100%.

A427 cell line = test: In vitro cell proliferation experiment (5 days), A427; format: cell-based; conditions: A427, 5 days; read-out: Inhibitory Activity IC50
Description: as §1, §2, §3

PK-59 cell line = test: In vitro cell proliferation experiment (5 days), PK-59; format: cell-based; conditions: PK-59, 5 days; read-out: Inhibitory Activity IC50
Description: as §1, §2, §3

Capan-1 cells = test: In vitro cell proliferation experiment (5 days), Capan-1; format: cell-based; conditions: Capan-1, 5 days; read-out: Inhibitory Activity IC50
Description: as §1, §2, §3

[3] = 25 mg/kg on Days 1-6 and 1 mg/kg on Days 7-21, Day 21

SMILES | AUC0-last ([1]; i.v. 1 mg/kg) [µM·h] | Cl ([1]; i.v. 1 mg/kg) [mL/min/kg] | T1/2 ([1]; i.v. 1 mg/kg) [h] | Vd ([1]; i.v. 1 mg/kg) [L/kg] | F(%) ([1]; p.o. 10 mg/kg) | AUC0-last ([1]; p.o. 10 mg/kg) [µM·h] | Cmax ([1]; p.o. 10 mg/kg) [nM] | T1/2 ([1]; p.o. 10 mg/kg) [h] | TMax ([1]; p.o. 10 mg/kg) [h] | pIC50 (AsPC-1 cells) | other results
CCn1c(-c2cc(N3CCN(C)CC3)cnc2C(C)OC)c2c3cc(ccc31)-c1csc(n1)CC(NC(=O)C1CC1C)C(=O)N1NC(C(=O)OCC(C)(C)C2)C2CC1C2 (single isomer, unassigned) [Compound 7A] | 4.95 | 3.6 | 8.5 | 2.5 | 34.2 | 17.069 | 1460 | 7.3 | 4.0 | 8.18 | 
CCn1c(-c2cc(N3CCN(C)CC3)cnc2C(C)OC)c2c3cc(ccc31)-c1csc(n1)CC(NC(=O)C1C(C)C1C)C(=O)N1NC(C(=O)OCC(C)(C)C2)C2CC1C2 (single isomer, unassigned) [Compound 6A] | 4.125 | 4.6 | 5.7 | 1.9 | 38 | 15.213 | 1620 | 6.1 | 1.5 | 8.68 | Tumour Volume (mm^3) Day 1 ([2]; 5 mg/kg, Day 1): 134.6 mm^3; Tumour Volume (mm^3) Day 7 ([2]; 5 mg/kg, Day 7): 86.5 mm^3; Tumour Volume (mm^3) Day 14 ([2]; 5 mg/kg, Day 14): 78.5 mm^3; TGI (%) ([2]; 5 mg/kg, Day 21): 104.4%; Tumour Volume (mm^3) Day 21 ([2]; 5 mg/kg, Day 21): 51.6 mm^3; Tumour Volume (mm^3) Day 1 ([2]; 25 mg/kg on Days 1-6 and 1 mg/kg on Days 7-21, Day 1): 134.5 mm^3; Tumour Volume (mm^3) Day 7 ([2]; 25 mg/kg on Days 1-6 and 1 mg/kg on Days 7-21, Day 7): 76.8 mm^3; Tumour Volume (mm^3) Day 14 ([2]; 25 mg/kg on Days 1-6 and 1 mg/kg on Days 7-21, Day 14): 71.1 mm^3; TGI (%) [2, 3]: 103.2%; Tumour Volume (mm^3) Day 21 [2, 3]: 75.1 mm^3; pIC50 (A427 cell line): 7.88; pIC50 (PK-59 cell line): 8.64; pIC50 (Capan-1 cells): 8.60
